Target: Chloramphenicol Acetyl Transferase (CAT) (Escherichia coli, UniProt P62577)
Assay: Acetylation by CAT with ¹⁴C acetyl coenzyme A, TLC and autoradiography
Format: biochemical
Conditions: analogue 2 mM stock 80 µl, CAT enzyme 3.75 units, ¹⁴C acetyl coenzyme A 0.1 µCi, 37°C for 90 minutes; no band in no enzyme control
Description: Biotinylated chloramphenicol analogue (compound 2) was dissolved to a concentration of 2 mmolar in 50% methanol. ¹⁴C acetyl coenzyme A (50 µCi/ml, […]) was obtained commercially.
In a microcentrifuge tube were mixed Tris/HCl (1M, pH 7.8) 7.5 µl, biotinylated chloramphenicol analogue (2 mM) 80 µl, CAT enzyme 3.75 units and ¹⁴C acetyl coenzyme A 2 µl (0.1 µCi). The mix was incubated at 37°C for 90 minutes. A control reaction which contained no enzyme was performed in parallel. 20 µl of each reaction was spotted on to a cellulose TLC plate which was developed in 95/5 chloroform methanol. The TLC plate was exposed to autoradiographic film.
The lane corresponding to the reaction to which enzyme was added contains a spot which migrated under the influence of the solvent. This band is acetylated, biotinylated chloramphenicol analogue. No corresponding band is visible in the no enzyme control.

Chloramphenicol Acetyl Transferase (CAT), sequence (P62577 whole entry, looked up): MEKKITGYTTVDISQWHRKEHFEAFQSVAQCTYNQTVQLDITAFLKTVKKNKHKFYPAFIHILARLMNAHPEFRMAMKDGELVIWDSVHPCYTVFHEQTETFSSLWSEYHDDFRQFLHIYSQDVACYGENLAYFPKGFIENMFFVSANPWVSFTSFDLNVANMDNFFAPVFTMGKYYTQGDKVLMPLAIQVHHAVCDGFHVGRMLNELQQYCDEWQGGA

CC(=O)N[C@H](CO)[C@H](O)c1ccc(NC(=O)CCCCCNC(=O)CCCC[C@@H]2SC[C@@H]3NC(=O)N[C@@H]32)cc1 [Compound 2, 6-biotinylamino-N[4-(N-acetyl-1-(2-amino-1,3-propandiol))phenyl]hexamide]
substrate of CAT (acetylated product band on TLC): is a substrate of CAT

— patent EP0656422A1, “Cat assay” (priority 1993, dated 1995)
